Assay results: ChEMBL document CHEMBL6134863, “Novel Mitochondria-Targeted Asymmetric Heptamethine Cyanine Dye for Cancer Targeted NIR Imaging and Potent Necrosis and Senescence Induction with Prolonged Retention” (J Med Chem, 2025)
Calls of active or inactive are those of the source. The calls are words filed in the database; no cut-off is given here.

Legend:
[1] = Solubility of compound in DMSO-H2O; format: physicochemical
[2] = Partition coefficient, logP of compound; format: physicochemical; details: octanol/water
[3] = Distribution coefficient, logD of compound; format: physicochemical; details: octanol/water
[4] = Drug accumulation in tumor to muscle of BALB/c mouse implanted with mouse 4T1 cells at 0.5 mg/kg, iv measured at 4 to 168 hrs; format: ADME, organism-based; details: in vivo, time 4-168 hrs
[5] = Ratio of drug level in tumor to muscle of BALB/c mouse implanted with mouse 4T1 cells at 0.5 mg/kg, iv measured at 12 to 24 hrs; format: ADME, organism-based; details: in vivo, time 12-24 hrs
[6] = Drug uptake in human NCI-H226 cells assessed as increase in red fluorescence intensity at 5 uM incubated for 30 mins by CY7 staining based microscopic analysis; format: ADME, cell-based; details: nci-h226, 0.5 h
[7] = Drug uptake in human NCI-H226 cells assessed as increase in green fluorescence intensity at 5 uM incubated for 30 mins by F-actin staining staining based microscopic analysis; format: ADME, cell-based; details: nci-h226, 0.5 h
[8] = Drug uptake in mouse 4T1 cells assessed as increase in red fluorescence intensity at 5 uM incubated for 30 mins by CY7 staining based microscopic analysis; format: ADME, cell-based; details: 4t1, 0.5 h
[9] = Drug uptake in mouse 4T1 cells assessed as increase in green fluorescence intensity at 5 uM incubated for 30 mins by F-actin staining staining based microscopic analysis; format: ADME, cell-based; details: 4t1, 0.5 h
[10] = Stability of compound in DMSO-H2O incubated for 150 mins by absorbance based analysis; format: physicochemical; details: 2.5 h
[11] = Antioxidant activity of compound in presence of RNS; format: functional
[12] = Antioxidant activity of compound in presence of Ca2+; format: functional
[13] = Antioxidant activity of compound in presence of Fe3+; format: functional
[14] = Antioxidant activity of compound in presence of NH4+; format: functional
[15] = Antioxidant activity of compound in presence of HSO3-; format: functional
[16] = Antioxidant activity of compound in presence of SO4; format: functional
[17] = Antioxidant activity of compound in presence of CO3; format: functional
[18] = Antioxidant activity of compound in presence of HCO3-; format: functional
[19] = Antioxidant activity of compound in presence of Cl-; format: functional
[20] = Antioxidant activity of compound in presence of Br-; format: functional
[21] = Antioxidant activity of compound in presence of H2O2-; format: functional
[22] = Antioxidant activity of compound in presence of ClO-; format: functional
[23] = Antioxidant activity of compound in presence of OH; format: functional
[24] = Antioxidant activity of compound in presence of TBHP; format: functional
[25] = Antioxidant activity of compound in presence of ONOO-; format: functional
[26] = Antioxidant activity of compound in presence of NO2; format: functional
[27] = Antioxidant activity of compound in presence of HCHO; format: functional
[28] = Antioxidant activity of compound in presence of […]; format: functional
[29] = Drug accumulation in BALB/c mouse tumor implanted with mouse 4T1 cells assessed as increase in fluorescence intensity at 0.5 mg/kg, iv measured at 48 hrs by imaging based analysis; format: ADME, organism-based, Neoplasm; details: in vivo
[30] = Drug accumulation in BALB/c mouse tumor implanted with mouse 4T1 cells assessed as increase in fluorescence intensity at 0.5 mg/kg, iv measured at 96 hrs by DAPI staining based fluorescence microscopic analysis; format: ADME, organism-based, Neoplasm; details: in vivo
[31] = Drug accumulation in BALB/c mouse plasma implanted with mouse 4T1 cells assessed as increase in fluorescence intensity at 0.5 mg/kg, iv measured at 96 to 120 hrs by imaging based analysis; format: ADME, organism-based; details: in vivo, time 96-120 hrs
[32] = Cytotoxicity against human Primary lung fibroblast assessed as decrease in cell viability up to 5 uM incubated for 24 hrs by CCK-8 assay; format: toxicity, cell-based
[33] = Cytotoxicity against human Primary lung fibroblast assessed as decrease in cell viability up to 10 uM incubated for 24 hrs by CCK-8 assay; format: toxicity, cell-based
NCI-H226 [34] = experiment: Cytotoxicity against human NCI-H226 assessed as decrease in cell viability up to 10 uM incubated for 24 hrs by CCK-8 assay; format: functional, cell-based
NIH3T3 = experiment: Cytotoxicity against mouse 3T3 cells assessed as decrease in cell viability up to 5 uM incubated for 24 hrs by CCK-8 assay; format: toxicity, cell-based; details: nih3t3, 24 h
[35] = Drug uptake in human NCI-H226 cells assessed as increase in fluorescence intensity incubated for 24 hrs by fluorescence based microscopic analysis; format: ADME, cell-based; details: nci-h226, 24 h
Mitochondrial membrane [36] = experiment: Induction of mitochondrial membrane potential loss in human NCI-H226 cells; format: cell membranes
[37] = Drug localization in mitochondria of human NCI-H226 cell by MitoTracker Red based NIR confocal microscopic analysis; format: ADME
NCI-H250 = experiment: Antitumor activity against human […] cells xenografted in BALB/c mouse assessed as tumor growth inhibition 0.5 mg/kg, iv measured for 5 days; format: functional, organism-based; details: time 5.0 day
[38] = Toxicity in BALB/c mouse implanted with mouse 4T1 cells assessed as survival rate at 5 mg/kg, iv measured for 11 days; format: organism-based; details: in vivo, time 11 day
[39] = Acute toxicity in BALB/c mouse implanted with mouse 4T1 cells assessed as change in body weight at 5 mg/kg, iv measured for 11 days; format: organism-based; details: in vivo, 264 h, time 11 day
[40] = Acute toxicity in BALB/c mouse implanted with mouse 4T1 cells at 5 mg/kg, iv measured for 11 days; format: organism-based; details: in vivo, 264 h, time 11 day
[41] = Toxicity in BALB/c mouse implanted with mouse 4T1 cells assessed as liver damage at 5 mg/kg, iv measured for 11 days by H and E staining based analysis; format: organism-based; details: in vivo, 264 h, time 11 day
[42] = Toxicity in BALB/c mouse implanted with mouse 4T1 cells assessed as kidney damage at 5 mg/kg, iv measured for 11 days by H and E staining based analysis; format: organism-based; details: in vivo, 264 h, time 11 day
Mitochondrial membrane [43] = experiment: Induction of mitochondrial membrane potential loss in human NCI-H226 cells at 2 uM incubated for 4 hrs by TMRE staining based fluorescence microscopic analysis; format: cell membranes
NCI-H226 [44] = experiment: Induction of ROS production in human NCI-H226 cells at 5 uM incubated for 24 hrs by flow cytometry analysis; format: functional, cell-based
NCI-H226 [45] = experiment: Induction of DNA damage in human NCI-H226 cells assessed as increase in gamma-H2AX level at 5 uM incubated for 24 hrs by immunofluorescence analysis; format: functional, cell-based
NCI-H226 [46] = experiment: Induction of apoptosis in human NCI-H226 cells assessed as viable cells at 5 uM incubated for 48 hrs by Annexin V-FITC/PI staining based flow cytometry (reference value: 93.4 %); format: functional; details: read-out: Activity
NCI-H226 [47] = experiment: Induction of apoptosis in human NCI-H226 cells assessed as late apoptotic cells at 5 uM incubated for 48 hrs by Annexin V-FITC/PI staining based flow cytometry (reference value: 3.61 %); format: functional
[48] = Toxicity in BALB/c mouse implanted with patient-derived Squamous carcinoma cell line assessed as change in body weight at 0.5 mg/kg, iv measured for 5 days; format: organism-based; details: in vivo, 120 h, time 5 day

Q: Which solubility [1] does the source give for CCCN1/C(=C/C=C2\CCCC(/C=C/C3=[N+](Cc4ccc(C(=O)O)cc4)c4ccccc4C3(C)C)=C2Cl)C(C)(C)c2ccccc21.[Br-] here?
A: 170 µg/mL

Q: What about the logP [2] of the same molecule?
A: 6.09

Q: What about the logD [3] of the same molecule?
A: 4.49

Q: What about the Drug uptake [4] of the same molecule?
A: Active

Q: And the Ratio [5]?
A: > 5

Q: What about the Drug uptake [6] of the same molecule?
A: Active

Q: What about the Drug uptake [7] of the same molecule?
A: Active

Q: And the Drug uptake [8]?
A: Active

Q: What about the Drug uptake [9] of the same molecule?
A: Active

Q: And the Stability [10]?
A: Stable

Q: And the Activity [11]?
A: Active

Q: And the Activity [12]?
A: Active

Q: And the Activity [13]?
A: Active

Q: And the Activity [14]?
A: Active

Q: What about the Activity [15] of the same molecule?
A: Active

Q: What about the Activity [16] of the same molecule?
A: Active

Q: What about the Activity [17] of the same molecule?
A: Active

Q: What about the Activity [18] of the same molecule?
A: Active

Q: What about the Activity [19] of the same molecule?
A: Active

Q: What about the Activity [20] of the same molecule?
A: Active

Q: What about the Activity [21] of the same molecule?
A: Active

Q: And the Activity [22]?
A: Active

Q: And the Activity [23]?
A: Active

Q: What about the Activity [24] of the same molecule?
A: Active

Q: What about the Activity [25] of the same molecule?
A: Active

Q: And the Activity [26]?
A: Active

Q: What about the Activity [27] of the same molecule?
A: Active

Q: What about the Activity [28] of the same molecule?
A: Active

Q: What about the Drug uptake [29] of the same molecule?
A: Active

Q: What about the Drug uptake [30] of the same molecule?
A: Active

Q: And the Drug uptake [31]?
A: Active

Q: And the Activity [32]?
A: Non-toxic

Q: And the Activity [33]?
A: Non-toxic

Q: What about the Activity (NCI-H226 [34]) of the same molecule?
A: Active

Q: What about the Activity (NIH3T3) of the same molecule?
A: > 80%

Q: And the Drug uptake [35]?
A: Active

Q: What about the Activity (Mitochondrial membrane [36]) of the same molecule?
A: Active

Q: And the Drug uptake [37]?
A: Active

Q: And the TGI (NCI-H250)?
A: Active

Q: What about the survival at 264 h [38] of the same molecule?
A: 100%

Q: And the Activity [39]?
A: Non-toxic

Q: What about the Activity [40] of the same molecule?
A: Non-toxic

Q: And the Activity [41]?
A: Non-toxic

Q: What about the Activity [42] of the same molecule?
A: Non-toxic

Q: And the Activity (Mitochondrial membrane [43])?
A: Active

Q: And the Activity (NCI-H226 [44])?
A: Active

Q: And the Activity (NCI-H226 [45])?
A: Active

Q: What about the viability at 5 µM (NCI-H226 [46]) of the same molecule?
A: 26.3%

Q: And the Activity (NCI-H226 [47])?
A: 14%

Q: What about the Activity [48] of the same molecule?
A: Non-toxic
